Measured values as given in patent US9102712B2, “Dendrimeric peptides, pharmaceutical compositions and methods of using the same” (New York University, priority 2010, dated 2015).
Converted amounts (≈) assume the structure as drawn. Square brackets hold non-standard residues; d marks the D form. Side chains are listed from the residue outwards. Peptide text beside a SMILES is read from it. * marks the point of attachment. ξ: configuration not given here. Lys(α,ε-(ArgTrp)2) = N=C(N)NCCC[C@H](N)C(=O)N[C@@H](Cc1c[nH]c2ccccc12)C(=O)NCCCC[C@H](NC(=O)[C@H](Cc1c[nH]c2ccccc12)NC(=O)[C@@H](N)CCCNC(=N)N)C(=O)*; X1 = CC(C)(C)c1cc(C(C)(C)C)c2[nH]c(C(C)(C)C)c(CC(NC(=O)[C@@H](N)CCCNC(=N)N)C(=O)*)c2c1; Trp(2,5,7-tBu3) = CC(C)(C)c1cc(C(C)(C)C)c2[nH]c(C(C)(C)C)c(C[C@H](N)C(=O)O)c2c1; ξTrp(2,5,7-tBu3) = CC(C)(C)c1cc(C(C)(C)C)c2[nH]c(C(C)(C)C)c(CC(N)C(=O)O)c2c1; βAla = NCCC(=O)O

What was measured:
S. aureus = type: cell-based; details: for S. Aureus IC50: 18 h; for S. Aureus HI (hemolytic index): HI=HD50/IC50, S. aureus
Experimental: (§1) The antibacterial activity of each dendrimer peptide was tested by following standard broth microdilution protocols recommended by the National Committee for Clinical Laboratory Standard (NCCLS 2004). Antibacterial testing was carried out on gram-negative bacteria E. coli (D31) and gram-positive bacteria S. aureus in liquid media Mueller Hinton (MH) Brooth according to literature procedures. Dendrimers were dissolved in PBS buffer (high salt, 150 mM NaCl; low salt, 75 mM NaCl), pH 7.4 to make series of stocks of 2-fold dilution. Cultures were grown overnight on Mueller Hinton (MH) agar plates, and 3 to 5 uniform colonies of each organism were transferred with an inoculating loop to test tubes containing MH broth, and incubated at 37° C. overnight, then diluted until the turbidity matched that of the 0.5 McFarland standard (approximately 1.5×10^8 cells/mL). The resulting solutions were further diluted to give approximately 2×10^4-2×10^5 CFU/mL. 100 μL of the bacterial inoculums were incubated in 96-well plates with varying volumes of stock solution and PBS buffer to bring the total volume to 200 μL. Solutions containing the same volumes of PBS buffer and MH Broth, with and without bacteria were used as controls. After these plates were incubated with shaking for 18 hrs at 37° C. to ensure the cultures had reached log phase growth, the absorbance readings were recorded at a wavelength of 600 nm using a Absorbance Microplate Reader BIO-TEK ELX800. The 18-hour absorbance data were used to calculate the percent inhibition for each test condition. All assays were carried out in triplicate. The experimental data were fitted to sigmoidal dose-response curves using GraphPad Prism (GraphPad Software Inc., San Diego, Calif., USA).

fresh sheep RBC = type: cell-based; details: red cells of sheep, 1 h
Experimental: Hemolytic activity of dendrimeric compounds were assessed on fresh sheep RBC (Fitzgerald, Inc., MA). Dendrimer concentrations corresponding to 50% hemolysis were used as hemolytic dose (HD50) determined from dose-response curve. The fresh sheep RBC was washed with PBS buffer (thrice) and aliquots of cell suspension were mixed in eppendorf tubes with varying volumes of stocks and buffer for a total volume of 400 μL. These tubes were incubated at 37° C. for 1 hr, and then spun down at 3,000 rpm for 5 mins. The resulting supernatant was trasferred to a 96-well plate and the absorbances at 540 nm were measured in an Absorbance Microplate Reader BIO-TEK ELX800. Zero hemolysis and 100% hemolysis controls were obtained by incubating the cells with buffer and 1% Triton X-100, respectively. Hemolytic index (HI) was defined as HI=HD50/IC50 (Table 1 and 3).

E. coli (D31) = assay: Antibacterial broth microdilution, E. coli; type: cell-based; details: for E. Coli HI (hemolytic index): HI=HD50/IC50, E. coli; for IC50 E. Coli D31 / E. Coli IC50: 50% inhibition of growth, MH broth, 18 hrs at 37° C.; for IC50 E. Coli D31: Table 3; for E. Coli IC50: Table 1
Experimental: as §1

B. Subtilis = type: cell-based; details: 18 h
MRSA = type: cell-based, Methicillin-resistant Staphylococcus aureus; details: 18 h
Experimental: as §1

SMILES	S. Aureus IC50 (S. aureus)	S. Aureus HI (hemolytic index) (S. aureus)	Hemolysis HD50 (fresh sheep RBC)	E. Coli HI (hemolytic index) (E. coli (D31))	HD50 Hemolysis (fresh sheep RBC)	IC50 B. Subtilis (B. Subtilis)	IC50 MRSA (MRSA)	IC50 E. Coli D31 (E. coli (D31))	E. Coli IC50 (E. coli (D31))
N=C(N)NCCC[C@H](N)C(=O)N[C@@H](Cc1c[nH]c2ccccc12)C(=O)NCCCC[C@H](NC(=O)[C@H](Cc1c[nH]c2ccccc12)NC(=O)[C@@H](N)CCCNC(=N)N)C(=O)NCCCC[C@H](NC(=O)[C@H](CCCCNC(=O)[C@H](Cc1c[nH]c2ccccc12)NC(=O)[C@@H](N)CCCNC(=N)N)NC(=O)[C@H](Cc1c[nH]c2ccccc12)NC(=O)[C@@H](N)CCCNC(=N)N)C(=O)NCCC(N)=O [(RW)4D, reference compound] (H-RWK([Trp-Arg])K(Lys(α,ε-(ArgTrp)2))[βAla]-NH2; N-terminus and C-terminus assumed)	16 µg/mL	88	1400 µg/mL	310					
N=C(N)NCCC[C@H](NC(=O)[C@H](Cc1c[nH]c2ccccc12)NC(=O)[C@@H](N)CCCNC(=N)N)C(=O)NCCCC[C@H](NC(=O)[C@H](CCCNC(=N)N)NC(=O)[C@H](Cc1c[nH]c2ccccc12)NC(=O)[C@@H](N)CCCNC(=N)N)C(=O)NCCC(N)=O [Dendrimer 2D-04, reference compound] (H-RWRK([Arg-Trp-Arg])[βAla]-NH2)					3428 µg/mL	6.1 µg/mL (≈ 5.03 µM)	56.6 µg/mL (≈ 46.6 µM)	6.8 µg/mL (≈ 5.6 µM)	
CC(C)(C)c1cc(C(C)(C)C)c2[nH]c(C(C)(C)C)c(CC(NC(=O)[C@@H](N)CCCNC(=N)N)C(=O)N[C@@H](CCCNC(=N)N)C(=O)NCCCC[C@H](NC(=O)[C@H](CCCNC(=N)N)NC(=O)C(Cc3c(C(C)(C)C)[nH]c4c(C(C)(C)C)cc(C(C)(C)C)cc34)NC(=O)[C@@H](N)CCCNC(=N)N)C(=O)NCCC(N)=O)c2c1 (stereo partly drawn) [Dendrimer 2D-24]					48 µg/mL	0.8 µg/mL (≈ 0.516 µM)	0.2 µg/mL (≈ 0.129 µM)	0.5 µg/mL (≈ 0.323 µM)	
N=C(N)NCCC[C@H](NC(=O)[C@@H](N)Cc1c[nH]c2ccccc12)C(=O)NCCCC[C@H](NC(=O)[C@H](CCCCNC(=O)[C@H](CCCNC(=N)N)NC(=O)[C@@H](N)Cc1c[nH]c2ccccc12)NC(=O)[C@H](CCCNC(=N)N)NC(=O)[C@@H](N)Cc1c[nH]c2ccccc12)C(=O)NCCC(N)=O [Dendrimer 3D-03, reference compound] (H-WRK([Arg-Trp])K([Arg-Trp])[βAla]-NH2)					3197 µg/mL	14.3 µg/mL (≈ 10.4 µM)	>100 µg/mL	12.1 µg/mL (≈ 8.82 µM)	
N=C(N)NCCC[C@H](NC(=O)[C@H](Cc1c[nH]c2ccccc12)NC(=O)[C@@H](N)CCCNC(=N)N)C(=O)NCCCC[C@H](NC(=O)[C@H](CCCCNC(=O)[C@H](CCCNC(=N)N)NC(=O)[C@H](Cc1c[nH]c2ccccc12)NC(=O)[C@@H](N)CCCNC(=N)N)NC(=O)[C@H](CCCNC(=N)N)NC(=O)[C@H](Cc1c[nH]c2ccccc12)NC(=O)[C@@H](N)CCCNC(=N)N)C(=O)NCCC(N)=O [Dendrimer 3D-06, reference compound] (H-RWRK([Arg-Trp-Arg])K([Arg-Trp-Arg])[βAla]-NH2)					2336 µg/mL	1.9 µg/mL (≈ 1.03 µM)	17.3 µg/mL (≈ 9.4 µM)	1.8 µg/mL (≈ 0.978 µM)	
CC(C)(C)c1cc(C(C)(C)C)c2[nH]c(C(C)(C)C)c(C[C@H](N)C(=O)N[C@@H](CCCNC(=N)N)C(=O)NCCCC[C@H](NC(=O)[C@H](CCCCNC(=O)[C@H](CCCNC(=N)N)NC(=O)[C@@H](N)Cc3c[nH]c4ccccc34)NC(=O)[C@H](CCCNC(=N)N)NC(=O)[C@@H](N)Cc3c[nH]c4ccccc34)C(=O)NCCC(N)=O)c2c1 [Dendrimer 3D-13] (H-WRK([Arg-Trp])K([Arg-Trp(2,5,7-tBu3)])[βAla]-NH2)					270 µg/mL	1.9 µg/mL (≈ 1.23 µM)	1.7 µg/mL (≈ 1.1 µM)	1.0 µg/mL (≈ 0.649 µM)	
CC(C)(C)c1cc(C(C)(C)C)c2[nH]c(C(C)(C)C)c(CC(NC(=O)[C@@H](N)CCCNC(=N)N)C(=O)N[C@@H](CCCNC(=N)N)C(=O)NCCCC[C@H](NC(=O)[C@H](CCCCNC(=O)[C@H](CCCNC(=N)N)NC(=O)[C@H](Cc3c[nH]c4ccccc34)NC(=O)[C@@H](N)CCCNC(=N)N)NC(=O)[C@H](CCCNC(=N)N)NC(=O)[C@H](Cc3c[nH]c4ccccc34)NC(=O)[C@@H](N)CCCNC(=N)N)C(=O)NCCC(N)=O)c2c1 (stereo partly drawn) [Dendrimer 3D-16] (H-RWRK([Arg-Trp-Arg])K([Arg-X1])[βAla]-NH2)					201 µg/mL	0.9 µg/mL (≈ 0.448 µM)	5.2 µg/mL (≈ 2.59 µM)	0.4 µg/mL (≈ 0.199 µM)	
CC(C)(C)c1cc(C(C)(C)C)c2[nH]c(C(C)(C)C)c(C[C@H](N)C(=O)N[C@@H](CCCNC(=N)N)C(=O)NCCCC[C@H](NC(=O)[C@H](CCCNC(=N)N)NC(=O)[C@@H](N)Cc3c(C(C)(C)C)[nH]c4c(C(C)(C)C)cc(C(C)(C)C)cc34)C(=O)N[C@@H](CCCCNC(=O)[C@H](CCCNC(=N)N)NC(=O)[C@@H](N)Cc3c[nH]c4ccccc34)C(=O)NCCC(N)=O)c2c1 [Dendrimer 3D-23] (H-[Trp(2,5,7-tBu3)]RK([Arg-Trp(2,5,7-tBu3)])K([Arg-Trp])[βAla]-NH2)					99 µg/mL	2.1 µg/mL (≈ 1.23 µM)	0.7 µg/mL (≈ 0.41 µM)	2.4 µg/mL (≈ 1.4 µM)	
CC(C)(C)c1cc(C(C)(C)C)c2[nH]c(C(C)(C)C)c(CC(NC(=O)[C@@H](N)CCCNC(=N)N)C(=O)N[C@@H](CCCNC(=N)N)C(=O)NCCCC[C@H](NC(=O)[C@H](CCCNC(=N)N)NC(=O)C(Cc3c(C(C)(C)C)[nH]c4c(C(C)(C)C)cc(C(C)(C)C)cc34)NC(=O)[C@@H](N)CCCNC(=N)N)C(=O)N[C@@H](CCCCNC(=O)[C@H](CCCNC(=N)N)NC(=O)[C@H](Cc3c[nH]c4ccccc34)NC(=O)[C@@H](N)CCCNC(=N)N)C(=O)NCCC(N)=O)c2c1 (stereo partly drawn) [Dendrimer 3D-26] (H-R[ξTrp(2,5,7-tBu3)]RK([Arg-X1])K([Arg-Trp-Arg])[βAla]-NH2)					33 µg/mL	1.4 µg/mL (≈ 0.643 µM)	0.5 µg/mL (≈ 0.23 µM)	1.4 µg/mL (≈ 0.643 µM)	
N=C(N)NCCC[C@H](NC(=O)[C@@H](N)Cc1c[nH]c2ccccc12)C(=O)NCCCC[C@H](NC(=O)[C@H](CCCNC(=N)N)NC(=O)[C@@H](N)Cc1c[nH]c2ccccc12)C(=O)NCCCC[C@H](NC(=O)[C@H](CCCCNC(=O)[C@H](CCCNC(=N)N)NC(=O)[C@@H](N)Cc1c[nH]c2ccccc12)NC(=O)[C@H](CCCNC(=N)N)NC(=O)[C@@H](N)Cc1c[nH]c2ccccc12)C(=O)NCCC(N)=O [Dendrimer 4D-04, reference compound]					1563 µg/mL	4.2 µg/mL (≈ 2.28 µM)	14.6 µg/mL (≈ 7.93 µM)	4.5 µg/mL (≈ 2.44 µM)	
N=C(N)NCCC[C@H](N)C(=O)N[C@@H](Cc1c[nH]c2ccccc12)C(=O)NCCCN(CCCCN(CCCNC(=O)[C@H](Cc1c[nH]c2ccccc12)NC(=O)[C@@H](N)CCCNC(=N)N)CCCNC(=O)[C@H](Cc1c[nH]c2ccccc12)NC(=O)[C@@H](N)CCCNC(=N)N)CCCNC(=O)[C@H](Cc1c[nH]c2ccccc12)NC(=O)[C@@H](N)CCCNC(=N)N [POPAM-(WR)4, POPAM-(WR—NH2)3]	0.37 ± 0.13 µg/mL		291 µg/mL						0.57 ± 0.12 µg/mL
NCCCC[C@H](N)C(=O)N[C@@H](Cc1c[nH]c2ccccc12)C(=O)NCCN(CCNC(=O)[C@H](Cc1c[nH]c2ccccc12)NC(=O)[C@@H](N)CCCCN)CCNC(=O)[C@H](Cc1c[nH]c2ccccc12)NC(=O)[C@@H](N)CCCCN [TAEA-(WK)3, TAEA-(WK—NH2)3]	4.12 ± 0.58 µg/mL	1316	5423 µg/mL	789					6.87 ± 0.01 µg/mL
